In US7964732B2, “Substituted bicyclocarboxyamide compounds” (Pfizer Inc., priority 2006, dated 2011):

How the values were obtained:
human VR1 [1] = target: T1, human VR1 (Homo sapiens, UniProt Q8NER1); experiment: Human VR1 antagonist assay (Ca2+ imaging assay using human VR1 highly expressing cells); format: cell-based; conditions: intracellular Ca2+ imaging (fura-2)
T1 construct: host or cells: cells that express human VR1 receptors (cell type not specified)
Text: VR1 antagonistic activity can be determined by the Ca^2+ imaging assay using human VR1 highly expressing cells. The cells that highly express human VR1 receptors are obtainable from several different conventional methods. The one standard method is cloning from human Dorsal Root Ganglion (DRG) or kidney according to the methods such as described in the journal article; Nature, 389, pp 816-824, 1997. Alternatively VR1 receptors highly expressing human keratinocytes are also known and published in the journal article (Biochemical and Biophysical Research Communications, 291, pp 124-129, 2002). […] Furthermore, the method to up regulate human VR1 gene, which is usually a silent gene or don't produce detectable level of VR1 receptors, is also available to obtain propriety cells. Such genetic modification method was described in detail; Nat. Biotechnol., 19, pp 440-445, 2001.
The cells that express human VR1 receptors were maintained in culture flask at 37° C. in an environment containing 5% CO2 until use in the assay. The intracellular Ca^2+ imaging assay to determine VR1 antagonistic activities were done by following procedures.
The culture medium was removed from the flask and fura-2/AM fluorescent calcium indicator was added to the flask at a concentration of 5 μM in the medium. The flask was placed in CO2 incubator and incubated for 1 hour. Then the cells expressing the human VR1 receptors were detached from the flask follow by washing with phosphate buffer saline, PBS(−) and re-suspended in assay buffer. The 80 μl of aliquot of cell suspension (3.75×10^5 cells/ml) was added to the assay plate and the cells were spun down by centrifuge (950 rpm, 20° C., 3 minutes).
Compounds of the examples were tested in the Human VR1 antagonist assay described above.
The capsaicin-induced changes in the intracellular calcium concentration were monitored using FDSS 6000 (Hamamatsu Photonics, Japan), a fluorometric imaging system. The cell suspension in Krebs-Ringer HEPES (KRH) buffer (115 mM NaCl, 5.4 mM KCl, 1 mM MgSO4, 1.8 mM CaCl2, 11 mM D-Glucose, 25 mM HEPES, 0.96 mM Na2HPO4, pH 7.3) were pre-incubated with varying concentrations of the test compounds or KRH buffer (buffer control) for 15 minutes at room temperature under the dark condition. Then capsaicin solution, which gives 300 nM in assay mixture, was automatically added to the assay plate by the FDSS 6000.
The Acid-induced changes in the intracellular calcium concentration were monitored using FDSS 6000 (Hamamatsu Photonics, Japan), a fluorometric imaging system. The cell suspension in resting buffer (HBSS supplemented with 10 mM HEPES, pH 7.4) were pre-incubated with varying concentrations of the test compounds or resting buffer (buffer control) for 15 minutes at room temperature under the dark condition. The cells were automatically added the stimulating solution (HBSS supplemented with MES, final assay buffer pH5.8) by the FDSS 6000.
The monitoring of the changes in the fluorescence signals (λex=340 nm/380 nm, λem=510-520 nm) was initiated at 1 minute prior to the addition of capsaicin solution or acidic buffer and continued for 5 minute.

human VR1 [2] = target: T1, human VR1; experiment: Determination of pA2 values against capsaicin stimulation (Ca2+ imaging, FLIPR TETRA, Schild analysis); format: cell-based; conditions: against capsaicin agonist dose-response
Procedure: pA2 values of antagonists against the capsaicin agonist dose-response were determined using a Ca^2+ imaging assay with cells expressing high levels of human VR1 (for explanation of theory behind pA2 determinations, see A Pharmacological Primer: Theory, Applications, and Methods 2nd edition by Terry P. Kenakin, pp. 102-108, Academic Press, New York, 2006). Cells that express high levels of VR1 were obtained by generation of a cell line from […] with heterologous expression of VR1 under control of an inducible promoter. Specifically, cells expressing human VR1 under the control of the human cytomegalovirus immediate-early (CMV) promoter and two tetracycline operator 2 (TetO2) sites were made using the T-REx System (Invitrogen, Carlsbad, Calif., USA). Details and methods concerning this system are published (Hum. Gene Ther. 9, pp. 1939-1950, 1998; Annu. Rev. Microbiol. 48, pp. 345-369, 1994; Mol. Biol. 169, pp. 707-721, 1983). VR1 was subcloned into the T-REx System pcDNA5/TO vector (Invitrogen Cat# V1033-20) which was transfected into the T-REx System […] cell line (Invitrogen Cat# R710-07) from which a stable cell line was established which express VR1 after induction by exposure to tetracycline or doxycycline (Hum. Gene Ther. 9, pp. 1939-1950, 1998; instructions that come with purchase of products noted above). […]
For assay preparation, cells expressing human VR1 as described above were plated in 96-well plates (Becton Dickinson [BD] poly-D-lysine coated 96-well plates, cat#356692) at 55,000 cells per well in culture media (described above) that also contains 1 ug/ml doxycycline. […] Changes in the fluorescence signal (λex=470-495 nm, λem=515-575 nm) were monitored throughout the experiment before agonist addition and for at least 2 min after agonist addition (enough time for the fluorescence response to reach and then decline from the absolute maximum, agonist-induced signal attained). […]

T1 sequence (Q8NER1 whole entry): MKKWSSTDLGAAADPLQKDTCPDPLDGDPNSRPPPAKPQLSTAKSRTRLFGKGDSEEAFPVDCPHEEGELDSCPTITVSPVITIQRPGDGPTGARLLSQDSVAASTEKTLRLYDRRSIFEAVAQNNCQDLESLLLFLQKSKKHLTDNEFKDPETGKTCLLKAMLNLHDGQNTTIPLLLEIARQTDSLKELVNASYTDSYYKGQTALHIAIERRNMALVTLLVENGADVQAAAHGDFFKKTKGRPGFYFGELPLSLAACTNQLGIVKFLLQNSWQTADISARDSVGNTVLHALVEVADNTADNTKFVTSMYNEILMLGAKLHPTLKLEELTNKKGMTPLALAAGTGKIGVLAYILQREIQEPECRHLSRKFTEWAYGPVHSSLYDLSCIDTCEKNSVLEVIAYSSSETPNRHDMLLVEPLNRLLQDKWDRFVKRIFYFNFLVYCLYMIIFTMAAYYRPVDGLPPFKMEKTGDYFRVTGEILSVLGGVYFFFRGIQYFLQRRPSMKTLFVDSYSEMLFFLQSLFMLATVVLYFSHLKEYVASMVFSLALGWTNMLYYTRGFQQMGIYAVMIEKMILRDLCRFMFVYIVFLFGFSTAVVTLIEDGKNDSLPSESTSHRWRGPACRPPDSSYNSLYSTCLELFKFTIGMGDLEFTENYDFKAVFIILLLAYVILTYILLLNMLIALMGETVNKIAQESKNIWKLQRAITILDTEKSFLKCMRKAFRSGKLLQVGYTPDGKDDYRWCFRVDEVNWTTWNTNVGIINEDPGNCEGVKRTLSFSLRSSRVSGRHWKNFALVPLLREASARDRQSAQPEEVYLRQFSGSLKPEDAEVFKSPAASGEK

Row | SMILES | IC50 (human VR1 [1]) | Kb (human VR1 [2]; pre-incubation 2 mins) | Kb (human VR1 [2]; pre-incubation 30 mins)
1 | Cc1c([C@@H](C)NC(=O)c2ccc3nc(C(C)(C)C(F)(F)F)ccc3c2)cnn1C [Example 1] | 25.2 nM | 1.74 nM | –
2 | Cc1c([C@@H](C)NC(=O)c2ccc3nc(C(C)(C)C(F)(F)F)ccc3c2)cnn1CC(F)(F)F [Example 6, N-((1R)-1-(5-methyl-1-(2,2,2-trifluoroethyl)-1H-pyrazol-4-yl)ethyl)-2-(2,2,2-trifluoro-1,1-dimethylethyl)quinoline-6-carboxamide] | 26.6 nM | 1.86 nM | –
3 | C[C@H](NC(=O)c1ccc2nc(C(C)(C)C(F)(F)F)ccc2c1)c1cnn(C)c1Cl [Example 18] | 18 nM | – | 5.25 nM
